According to US7220740B2, “1,4-diazabicyclo[3.2.2]nonabenzoxazole, -benzothiazole and benzimidazole derivatives, preparation and therapeutic use thereof” (Sanofi-aventis, priority 2000, dated 2007):

melting point: 158 to 160 °C
SMILES: O=[N+]([O-])c1ccc2oc(N3CCN4CCC3CC4)nc2c1
